Experimental data published in ChEMBL document CHEMBL1255447, “Efflux pumps, OprD porin, AmpC beta-lactamase, and multiresistance in Pseudomonas aeruginosa isolates from cystic fibrosis patients” (2010).
Converted amounts (≈) assume the structure as drawn.

Columns and labels:
Pseudomonas aeruginosa [1] = assay: Antimicrobial activity against Pseudomonas aeruginosa 1405-con D2 by Etest; format: functional
Pseudomonas aeruginosa [2] = assay: Antimicrobial activity against Pseudomonas aeruginosa isolate 13167 from fibrosis patient by Etest; format: functional
Pseudomonas aeruginosa [3] = assay: Antimicrobial activity against Pseudomonas aeruginosa isolate 1693c from fibrosis patient by Etest; format: functional
Pseudomonas aeruginosa [4] = assay: Antimicrobial activity against Pseudomonas aeruginosa isolate 17112 from fibrosis patient by Etest; format: functional
Pseudomonas aeruginosa [5] = assay: Antimicrobial activity against Pseudomonas aeruginosa isolate 16008 from fibrosis patient by Etest; format: functional
Pseudomonas aeruginosa [6] = assay: Antimicrobial activity against Pseudomonas aeruginosa R70 Etest; format: functional
Pseudomonas aeruginosa [7] = assay: Antimicrobial activity against Pseudomonas aeruginosa AHP Etest; format: functional
Pseudomonas aeruginosa [8] = assay: Antimicrobial activity against Pseudomonas aeruginosa M1251 by Etest
Pseudomonas aeruginosa [9] = assay: Antimicrobial activity against Pseudomonas aeruginosa isolate 3149 from fibrosis patient by Etest; format: functional
Pseudomonas aeruginosa [10] = assay: Antimicrobial activity against Pseudomonas aeruginosa isolate 15107 from fibrosis patient by Etest; format: functional
Pseudomonas aeruginosa [11] = assay: Antimicrobial activity against Pseudomonas aeruginosa isolate 1530c from fibrosis patient by Etest; format: functional
Pseudomonas aeruginosa [12] = assay: Antimicrobial activity against Pseudomonas aeruginosa Z799/61 by Etest; format: functional
Pseudomonas aeruginosa [13] = assay: Antimicrobial activity against Pseudomonas aeruginosa isolate 1352c from fibrosis patient by Etest; format: functional
Pseudomonas aeruginosa [14] = assay: Antimicrobial activity against Pseudomonas aeruginosa isolate 1665 from fibrosis patient by Etest; format: functional
Pseudomonas aeruginosa [15] = assay: Antimicrobial activity against Pseudomonas aeruginosa isolate 1495c from fibrosis patient by Etest; format: functional
Pseudomonas aeruginosa [16] = assay: Antimicrobial activity against Pseudomonas aeruginosa isolate 1529c from fibrosis patient by Etest; format: functional
Pseudomonas aeruginosa [17] = assay: Antimicrobial activity against Pseudomonas aeruginosa isolate 1726 from fibrosis patient by Etest; format: functional
Pseudomonas aeruginosa [18] = assay: Antimicrobial activity against Pseudomonas aeruginosa isolate 14169c from fibrosis patient by Etest; format: functional
Pseudomonas aeruginosa [19] = assay: microbe, parasite or virus in culture; details: 2779-con
Description: Antimicrobial activity against Pseudomonas aeruginosa 2779-con by Etest

Pseudomonas aeruginosa [20] = assay: microbe, parasite or virus in culture; details: isolate 13120
Description: Antimicrobial activity against Pseudomonas aeruginosa isolate 13120 from fibrosis patient by Etest

Pseudomonas aeruginosa [21] = assay: Antimicrobial activity against Pseudomonas aeruginosa isolate 1333c from fibrosis patient by Etest; format: functional
Pseudomonas aeruginosa [22] = assay: Antimicrobial activity against Pseudomonas aeruginosa isolate 15110c from fibrosis patient by Etest; format: functional
Pseudomonas aeruginosa [23] = assay: Antimicrobial activity against Pseudomonas aeruginosa isolate 1253 from fibrosis patient by Etest; format: functional
Pseudomonas aeruginosa [24] = assay: Antimicrobial activity against Pseudomonas aeruginosa isolate 1712c from fibrosis patient by Etest; format: functional
Pseudomonas aeruginosa [25] = assay: Antimicrobial activity against Pseudomonas aeruginosa isolate 1240 from fibrosis patient by Etest; format: functional
Pseudomonas aeruginosa [26] = assay: Antimicrobial activity against Pseudomonas aeruginosa isolate 17145c from fibrosis patient by Etest; format: functional
Pseudomonas aeruginosa [27] = assay: Antimicrobial activity against Pseudomonas aeruginosa isolate 1248c from fibrosis patient by Etest; format: functional
Pseudomonas aeruginosa [28] = assay: Antimicrobial activity against Pseudomonas aeruginosa R20 Etest; format: functional
Pseudomonas aeruginosa [29] = assay: Antimicrobial activity against Pseudomonas aeruginosa isolate 12142c from fibrosis patient by Etest; format: functional
Pseudomonas aeruginosa [30] = assay: Antimicrobial activity against Pseudomonas aeruginosa isolate 1681c from fibrosis patient by Etest; format: functional
Pseudomonas aeruginosa [31] = assay: Antimicrobial activity against Pseudomonas aeruginosa isolate 1247c from fibrosis patient by Etest; format: functional
Pseudomonas aeruginosa [32] = assay: Antimicrobial activity against Pseudomonas aeruginosa isolate 12102 from fibrosis patient by Etest; format: functional

Compound | MIC (Pseudomonas aeruginosa [1]) | MIC (Pseudomonas aeruginosa [2]) | MIC (Pseudomonas aeruginosa [3]) | MIC (Pseudomonas aeruginosa [4]) | MIC (Pseudomonas aeruginosa [5]) | MIC (Pseudomonas aeruginosa [6]) | MIC (Pseudomonas aeruginosa [7]) | MIC (Pseudomonas aeruginosa [8]) | MIC (Pseudomonas aeruginosa [9]) | MIC (Pseudomonas aeruginosa [10]) | MIC (Pseudomonas aeruginosa [11]) | MIC (Pseudomonas aeruginosa [12]) | MIC (Pseudomonas aeruginosa [13]) | MIC (Pseudomonas aeruginosa [14]) | MIC (Pseudomonas aeruginosa [15]) | MIC (Pseudomonas aeruginosa [16]) | MIC (Pseudomonas aeruginosa [17]) | MIC (Pseudomonas aeruginosa [18]) | MIC (Pseudomonas aeruginosa [19]) | MIC (Pseudomonas aeruginosa [20]) | further results
CO/N=C(\C(=O)N[C@@H]1C(=O)N2C(C(=O)O)=C(COC(C)=O)CS[C@H]12)c1csc(N)n1 [CEFOTAXIME] | > 256 µg/mL | > 256 µg/mL | 128 µg/mL (≈ 281 µM) | > 256 µg/mL | 64 µg/mL (≈ 141 µM) | 256 µg/mL (≈ 562 µM) | 4 µg/mL (≈ 8.78 µM) | 128 µg/mL (≈ 281 µM) | 64 µg/mL (≈ 141 µM) | 256 µg/mL (≈ 562 µM) | 32 µg/mL (≈ 70.3 µM) | 0.5 µg/mL (≈ 1.1 µM) | > 256 µg/mL | > 256 µg/mL | > 256 µg/mL | 32 µg/mL (≈ 70.3 µM) | 16 µg/mL (≈ 35.1 µM) | 128 µg/mL (≈ 281 µM) | > 256 µg/mL | 128 µg/mL (≈ 281 µM) | MIC (Pseudomonas aeruginosa [21]): > 256 µg/mL; MIC (Pseudomonas aeruginosa [22]): > 256 µg/mL; MIC (Pseudomonas aeruginosa [23]): 128 µg/mL (≈ 281 µM); MIC (Pseudomonas aeruginosa [24]): > 256 µg/mL; MIC (Pseudomonas aeruginosa [25]): 256 µg/mL (≈ 562 µM); MIC (Pseudomonas aeruginosa [26]): 128 µg/mL (≈ 281 µM); MIC (Pseudomonas aeruginosa [27]): > 256 µg/mL; MIC (Pseudomonas aeruginosa [28]): 4 µg/mL (≈ 8.78 µM); MIC (Pseudomonas aeruginosa [29]): > 256 µg/mL; MIC (Pseudomonas aeruginosa [30]): > 256 µg/mL; MIC (Pseudomonas aeruginosa [31]): 128 µg/mL (≈ 281 µM); MIC (Pseudomonas aeruginosa [32]): 64 µg/mL (≈ 141 µM)
NCC[C@H](O)C(=O)N[C@@H]1C[C@H](N)[C@@H](O[C@H]2O[C@H](CN)[C@@H](O)[C@H](O)[C@H]2O)[C@H](O)[C@H]1O[C@H]1O[C@H](CO)[C@@H](O)[C@H](N)[C@H]1O [AMIKACIN] | 4 µg/mL (≈ 6.83 µM) | 64 µg/mL (≈ 109 µM) | 1 µg/mL (≈ 1.71 µM) | 1 µg/mL (≈ 1.71 µM) | 32 µg/mL (≈ 54.6 µM) | 1 µg/mL (≈ 1.71 µM) | ≤ 0.5 µg/mL | 1 µg/mL (≈ 1.71 µM) | > 64 µg/mL | > 64 µg/mL | 32 µg/mL (≈ 54.6 µM) | 1 µg/mL (≈ 1.71 µM) | > 64 µg/mL | > 64 µg/mL | > 64 µg/mL | 64 µg/mL (≈ 109 µM) | 2 µg/mL (≈ 3.42 µM) | 32 µg/mL (≈ 54.6 µM) | 1 µg/mL (≈ 1.71 µM) | 1 µg/mL (≈ 1.71 µM) | MIC (Pseudomonas aeruginosa [21]): 64 µg/mL (≈ 109 µM); MIC (Pseudomonas aeruginosa [22]): > 64 µg/mL; MIC (Pseudomonas aeruginosa [23]): 32 µg/mL (≈ 54.6 µM); MIC (Pseudomonas aeruginosa [24]): > 64 µg/mL; MIC (Pseudomonas aeruginosa [25]): 4 µg/mL (≈ 6.83 µM); MIC (Pseudomonas aeruginosa [26]): 64 µg/mL (≈ 109 µM); MIC (Pseudomonas aeruginosa [27]): > 64 µg/mL; MIC (Pseudomonas aeruginosa [28]): ≤ 0.5 µg/mL; MIC (Pseudomonas aeruginosa [29]): > 64 µg/mL; MIC (Pseudomonas aeruginosa [30]): 64 µg/mL (≈ 109 µM); MIC (Pseudomonas aeruginosa [31]): > 64 µg/mL; MIC (Pseudomonas aeruginosa [32]): 4 µg/mL (≈ 6.83 µM)
C[C@@H](O)[C@H]1C(=O)N2C(C(=O)O)=C(S[C@@H]3CN[C@H](C(=O)N(C)C)C3)[C@H](C)[C@H]12 [MEROPENEM] | 8 µg/mL (≈ 20.9 µM) | 4 µg/mL (≈ 10.4 µM) | 2 µg/mL (≈ 5.22 µM) | > 32 µg/mL | 4 µg/mL (≈ 10.4 µM) | > 32 µg/mL | 0.25 µg/mL (≈ 0.652 µM) | 8 µg/mL (≈ 20.9 µM) | 8 µg/mL (≈ 20.9 µM) | 2 µg/mL (≈ 5.22 µM) | 0.5 µg/mL (≈ 1.3 µM) | ≤ 0.06 µg/mL | 16 µg/mL (≈ 41.7 µM) | > 32 µg/mL | > 32 µg/mL | 4 µg/mL (≈ 10.4 µM) | 0.12 µg/mL (≈ 0.313 µM) | 4 µg/mL (≈ 10.4 µM) | 1 µg/mL (≈ 2.61 µM) | 32 µg/mL (≈ 83.4 µM) | MIC (Pseudomonas aeruginosa [21]): 16 µg/mL (≈ 41.7 µM); MIC (Pseudomonas aeruginosa [22]): 16 µg/mL (≈ 41.7 µM); MIC (Pseudomonas aeruginosa [23]): 32 µg/mL (≈ 83.4 µM); MIC (Pseudomonas aeruginosa [24]): 32 µg/mL (≈ 83.4 µM); MIC (Pseudomonas aeruginosa [25]): 8 µg/mL (≈ 20.9 µM); MIC (Pseudomonas aeruginosa [26]): 4 µg/mL (≈ 10.4 µM); MIC (Pseudomonas aeruginosa [27]): 16 µg/mL (≈ 41.7 µM); MIC (Pseudomonas aeruginosa [28]): 0.5 µg/mL (≈ 1.3 µM); MIC (Pseudomonas aeruginosa [29]): 32 µg/mL (≈ 83.4 µM); MIC (Pseudomonas aeruginosa [30]): 8 µg/mL (≈ 20.9 µM); MIC (Pseudomonas aeruginosa [31]): 4 µg/mL (≈ 10.4 µM); MIC (Pseudomonas aeruginosa [32]): 16 µg/mL (≈ 41.7 µM)
